Measured values reported in patent US20080200444A1, “SOLUBLE EPOXIDE HYDROLASE INHIBITORS” (Arete Therapeutics, Inc., priority 2006, published 2008).

Tested on: soluble epoxide hydrolase (sEH)
Test: Fluorescent assay for mouse and human soluble epoxide hydrolase (CMNPC substrate)
Assay type: biochemical
Conditions: inhibitor at 50 nM; recombinant sEH, CMNPC substrate 5 μM, 30° C., pH 7.0; mouse or human enzyme not given
Source text: Fluorescent Assay for Mouse and Human Soluble Epoxide Hydrolase
Recombinant mouse sEH (MsEH) and human sEH (HsEH) were produced in a baculovirus expression system as previously reported. Grant et al., J. Biol. Chem., 268:17628-17633 (1993); Beetham et al., Arch. Biochem. Biophys., 305:197-201 (1993). The expressed proteins were purified from cell lysate by affinity chromatography. Wixtrom et al., Anal. Biochem., 169:71-80 (1988). Protein concentration was quantified using the Pierce BCA assay using bovine serum albumin as the calibrating standard. The preparations were at least 97% pure as judged by SDS-PAGE and scanning densitometry. They contained no detectable esterase or glutathione transferase activity which can interfere with the assay. The assay was also evaluated with similar results in crude cell lysates or homogenate of tissues.
The IC50s for each inhibitor were according to the following procedure:
Cyano(2-methoxynaphthalen-6-yl)methyl(3-phenyloxiran-2-yl)methyl carbonate (CMNPC; Jones P. D. et. al.; Analytical Biochemistry 2005; 343: pp.66-75)
Bis/Tris HCl 25 mM pH 7.0 containing 0.1 mg/mL of BSA (buffer A)
CMNPC at 0.25 mM in DMSO.
Mother solution of enzyme in buffer A (Mouse sEH at 6 μg/mL and Human sEH at 5 μg/mL).
Inhibitor dissolved in DMSO at the appropriate concentration.
In a black 96 well plate, fill all the wells with 150 μL of buffer A.
Add 2 μL of DMSO in well A2 and A3, and then add 2 μL of inhibitor solution in A1 and A4 through A12.
Add 150 μL of buffer A in row A, then mix several time and transfer 150 μL to row B. Repeat this operation up to row H. The 150 μL removed from row H is discarded.
Add 20 μL of buffer A in column 1 and 2, then add 20 μL of enzyme solution to column 3 to 12.
Incubate the plate for 5 minutes in the plate reader at 30° C.
During incubation prepare the working solution of substrate by mixing 3.68 mL of buffer A (4×0.920 mL) with 266 μL (2×133 μL) of substrate solution).
At t=0, add 30 μL of working substrate solution with multi-channel pipette labeled “Briggs 303” and start the reading ([S]final: 5 μM).
Read with ex: 330 nm (20 nm) and em: 465 nm (20 nm) every 30 second for 10 minutes. The velocities are used to analyze and calculate the IC50s.

CC(=O)N1CCCC(NC(=O)NC23CC4CC(CC(C4)C2)C3)C1 (stereo not shown) [Compound 1, 1-(1-Acetyl-piperidin-3-yl)-3-adamantan-1-yl-urea]
% Inhibition at 50 nM: 69%

CS(=O)(=O)N1CCCC(NC(=O)NC23CC4CC(CC(C4)C2)C3)C1 (stereo not shown) [Compound 2, 1-Adamantan-1-yl-3-(1-methanesulfonyl-piperidin-3-yl)-urea]
% Inhibition at 50 nM: 76%

O=C(NC1CCCN(S(=O)(=O)c2ccc(Cl)cc2)C1)NC12CC3CC(CC(C3)C1)C2 (stereo not shown) [Compound 3, 1-Adamantan-1-yl-3-[1-(4-chloro-benzenesulfonyl)-piperidin-3-yl]-urea]
% Inhibition at 50 nM: 94%

O=C(NC1CCCN(S(=O)(=O)c2cccc(C(F)(F)F)c2)C1)NC12CC3CC(CC(C3)C1)C2 (stereo not shown) [Compound 4, 1-Adamantan-1-yl-3-[1-(3-trifluoromethyl-benzenesulfonyl)-piperidin-3-yl]-urea]
% Inhibition at 50 nM: 95%
